Assay [1] deals with HeLa. Briefly: Cytotoxicity counterscreen assay for transcriptional activators of heat shock protein 70 (Hsp70). [Related pubchem assays: 1203, 1252 ]. In kind it is functional. The note with it: Homo sapiens. In general terms: A counterscreen serves to expose hits that act by an unwanted route or on another target.
The target in assay [2] is T1, Estrogen receptor (Homo sapiens, UniProt P03372).
T1 sequence (P03372 whole entry): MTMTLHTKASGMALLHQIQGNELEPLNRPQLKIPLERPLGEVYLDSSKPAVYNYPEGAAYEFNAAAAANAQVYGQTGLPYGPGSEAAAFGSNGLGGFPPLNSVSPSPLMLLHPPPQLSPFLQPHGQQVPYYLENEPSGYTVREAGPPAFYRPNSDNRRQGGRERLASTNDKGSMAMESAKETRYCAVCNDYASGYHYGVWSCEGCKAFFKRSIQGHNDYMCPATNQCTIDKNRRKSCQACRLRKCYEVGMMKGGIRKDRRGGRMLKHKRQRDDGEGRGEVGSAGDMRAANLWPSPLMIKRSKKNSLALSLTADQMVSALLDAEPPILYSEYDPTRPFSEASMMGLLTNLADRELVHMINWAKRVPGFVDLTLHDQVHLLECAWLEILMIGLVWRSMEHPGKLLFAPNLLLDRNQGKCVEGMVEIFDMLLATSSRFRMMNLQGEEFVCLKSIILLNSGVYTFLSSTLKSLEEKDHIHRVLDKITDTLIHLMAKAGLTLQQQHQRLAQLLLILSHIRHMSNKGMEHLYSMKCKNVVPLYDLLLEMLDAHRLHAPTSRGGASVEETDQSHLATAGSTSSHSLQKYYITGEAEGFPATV
Briefly: blockers of SRC-3 recruitment to ERα – biochemical, ELISA, streptavidin-HRP readout, orthogonal assay, confirmation (AID 1079). A general note: In an ELISA, binding on a coated surface is turned into a signal by an enzyme label.

Assay [3] in a line: blockers of bursicon-stimulated LGR2 cAMP reporter – cell-based, HEK293, CRE-luciferase reporter, cherry pick, set 2, dose response (AID 743343).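 Further: transfected cells were stimulated with diluted bursicon conditioned medium after compound addition.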 In kind it is functional.
A short description of assay [4]: PAX8-dependent cell viability loss – plate reader, dry powder, dose response (AID 743049). In kind it is functional, cell-based.
A short description of assay [5]: HIV-1 AD8 envelope cell-cell fusion blockers – cherry-pick, dose response (AID 652062).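 Further: luciferase signal from cell-cell fusion driven by HIV-1 clade B AD8 Env; potency is for inhibitors of fusion seen as a drop in luminescence.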 In kind it is functional, cell-based.
Assay [6] is described as follows: blockers of HIV-1 envelope-mediated cell-cell fusion – cherry-pick, dose response (AID 652057). In kind it is functional, cell-based.
The nature of assay [7]: cells. In kind it is functional, cell-based.
Assay [8] concerns the target Paired box protein Pax-8 (Homo sapiens, UniProt Q06710). Briefly: PAX8 transcriptional activity inhibition in RMG-I – RMG-I cells, luciferase, cherry-pick, dose response (AID 687027).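 Further: luciferase reporter driven by Pax8 target thyroperoxidase promoter measured by SteadyGlo luminescence.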 In kind it is functional, cell-based.
Assay [9] in a line: alpha-synuclein stem-loop translation blockers – luminescence, H4 neuroglioblastoma cells, dose confirmation, confirmation (AID 2454).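 Further: H4 neuroglioblastoma cells carrying an alpha-synuclein 5'UTR luciferase reporter; potency for inhibition of the luciferase signal.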 In kind it is functional, cell-based.
Assay [10] in a line: COV362 cell viability loss – plate reader, dry powder, SA12, cytotoxicity control for PAX8 inhibitor project, dose response (AID 743144). In kind it is functional, cell-based.
A short description of assay [11]: blockers of HIV-1 ZM109 envelope-driven cell-cell fusion – HeLa effector, CEM target cells, luciferase, cherry-pick, dose response (AID 652058).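 Further: luciferase signal from HIV-1 Env mediated cell-cell fusion of effector and target cells.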 In kind it is functional, cell-based.
Assay [12] can be described thus: alpha-synuclein stem-loop luciferase translation blockers – H4 neuroglioma cells, luminescence, confirmation (AID 1988). In kind it is functional, cell-based.
The nature of assay [13]: PAX5 cellular inhibition readout – cell-based, plate reader, dry powder samples, selectivity assay for PAX8 inhibitor project, dose response (AID 743047).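 Further: HEK293 cells carrying a Pax5 driven CD19 promoter luciferase reporter; potency of inhibitors that lower reporter luminescence.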 In kind it is functional.
Assay [14] is described as follows: blockade of melanocortin 4 receptor signaling – cell-based, plate reader, cherry pick, counter-screen for LGR2 antagonist project, dose response (AID 743444).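 Further: transfected HEK 293 cells stimulated with alpha-MSH peptide; potency of inhibitors of the alpha-MSH evoked signal.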 In kind it is functional.
Assay [15] can be described thus: Luminescence-based counterscreen assay for KLF5 inhibitors: dose response cell-based high throughput screening assay to identify cytotoxic compounds using the IEC-6 intestinal epithelial cell line. [Related pubchem assays: 1700 (Primary screen.), 1834 (Confirmation screen.), 1858 (Summary AID.), 1905 (Counterscreen.)]. In kind it is functional.
For assay [16], the target named is T2, Microphthalmia-associated transcription factor (Homo sapiens, UniProt O75030).
T2 sequence (O75030 whole entry): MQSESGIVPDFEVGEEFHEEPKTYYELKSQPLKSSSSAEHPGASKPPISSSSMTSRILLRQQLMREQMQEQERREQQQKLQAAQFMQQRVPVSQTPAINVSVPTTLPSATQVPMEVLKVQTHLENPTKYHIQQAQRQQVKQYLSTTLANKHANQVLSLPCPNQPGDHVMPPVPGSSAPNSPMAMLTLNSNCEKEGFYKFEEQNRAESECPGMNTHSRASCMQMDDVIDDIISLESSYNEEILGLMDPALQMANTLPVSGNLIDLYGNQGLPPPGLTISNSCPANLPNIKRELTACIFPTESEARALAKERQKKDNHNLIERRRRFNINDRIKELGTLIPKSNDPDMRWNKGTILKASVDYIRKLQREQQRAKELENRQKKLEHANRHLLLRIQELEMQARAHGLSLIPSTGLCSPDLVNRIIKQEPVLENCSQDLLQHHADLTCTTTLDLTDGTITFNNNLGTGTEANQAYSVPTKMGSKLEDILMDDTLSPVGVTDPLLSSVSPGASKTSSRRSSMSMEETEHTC
Briefly: reducers of TRPM1 reporter luminescence, concentration series – cell-based, SK-MEL-5, cherry-picked, set 3, MITF inhibitor project, dose response (AID 493073).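 Further: SK-MEL-5 melanoma cells with luciferase driven by the MITF target TRPM1 promoter.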 In kind it is functional.

Assay [17] in a line: inhibitors acting on PAX2 in cells – cell-based, plate reader, dry powder samples, selectivity assay for PAX8 inhibitor project, dose response (AID 743048).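 Further: HEK293 cells carrying a WT1 promoter luciferase reporter driven by expressed Pax2; potency is for inhibition of Pax2 driven reporter signal.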 In kind it is functional.
Assay [18] in a line: luciferase reporter signal reduction – luminescence, H4-C neuroglioblastoma cells, dose response (AID 2458).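 Further: H4 neuroglioblastoma cells stably carrying a luciferase reporter gene fusion.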 In kind it is functional, cell-based. On the technique in general: A reporter such as luciferase makes a cellular process visible.
Assay [19] is described as follows: off-target signal loss in HeLa-CEM21 co-culture – HeLa F-luc CTL cells, cherry-picked, counter-screen for HIV-1 Env fusion inhibitor project, dose response (AID 652040).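 Further: potency for signal decrease marking cytotoxic or nonspecific inhibition.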 In kind it is functional, cell-based.
Assay [20] in a line: viability loss in HEK293 cells – cell-based, plate reader, cherry-picked samples, cytotoxicity control, dose response (AID 743446). In kind it is functional.
The nature of assay [21]: toxicity toward HepG2 liver cells – cell-based, plate reader, cherry-pick, antagonist series, cytotoxicity control, dose response (AID 743416). In kind it is functional.
Assay [22] is described as follows: antiviral protection against BTV-induced cell death – arbovirus, BSR cells, confirmation (AID 1250).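 Further: protection from viral cytopathic effect measured as cell viability by ATP luminescence.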 In kind it is functional.
Assay [23] deals with T1, Estrogen receptor. Briefly: ERα coactivator recruitment enhancers – biochemical, TR-FRET, ERα LBD, dose response (AID 737).
Assay [24] deals with Melanocortin receptor 4 (Homo sapiens, UniProt P32245). In kind it is functional, cell-based.
Chain of Melanocortin receptor 4 (P32245 whole entry): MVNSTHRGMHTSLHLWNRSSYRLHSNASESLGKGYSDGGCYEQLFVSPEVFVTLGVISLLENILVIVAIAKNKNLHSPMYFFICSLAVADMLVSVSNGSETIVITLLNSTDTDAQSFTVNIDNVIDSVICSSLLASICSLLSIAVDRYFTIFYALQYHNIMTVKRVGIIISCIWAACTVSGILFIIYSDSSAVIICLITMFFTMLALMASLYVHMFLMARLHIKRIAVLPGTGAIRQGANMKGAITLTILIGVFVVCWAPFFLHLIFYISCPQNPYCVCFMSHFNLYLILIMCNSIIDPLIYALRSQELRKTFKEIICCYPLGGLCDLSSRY
Assay [25] has as its target Eukaryotic translation initiation factor 4H (Homo sapiens, UniProt Q15056). Briefly: eIF4H binding inhibition – biochemical, uHTS, fluorescence polarization, translation initiation inhibitor project, primary screen (AID 2012).
Assay [26] deals with Polyadenylate-binding protein 1 (Homo sapiens, UniProt P11940). Briefly: blockers of PABP interaction with poly(A) – biochemical, fluorescence polarization, […] (AID 2014).
Chain of Polyadenylate-binding protein 1 (P11940 whole entry): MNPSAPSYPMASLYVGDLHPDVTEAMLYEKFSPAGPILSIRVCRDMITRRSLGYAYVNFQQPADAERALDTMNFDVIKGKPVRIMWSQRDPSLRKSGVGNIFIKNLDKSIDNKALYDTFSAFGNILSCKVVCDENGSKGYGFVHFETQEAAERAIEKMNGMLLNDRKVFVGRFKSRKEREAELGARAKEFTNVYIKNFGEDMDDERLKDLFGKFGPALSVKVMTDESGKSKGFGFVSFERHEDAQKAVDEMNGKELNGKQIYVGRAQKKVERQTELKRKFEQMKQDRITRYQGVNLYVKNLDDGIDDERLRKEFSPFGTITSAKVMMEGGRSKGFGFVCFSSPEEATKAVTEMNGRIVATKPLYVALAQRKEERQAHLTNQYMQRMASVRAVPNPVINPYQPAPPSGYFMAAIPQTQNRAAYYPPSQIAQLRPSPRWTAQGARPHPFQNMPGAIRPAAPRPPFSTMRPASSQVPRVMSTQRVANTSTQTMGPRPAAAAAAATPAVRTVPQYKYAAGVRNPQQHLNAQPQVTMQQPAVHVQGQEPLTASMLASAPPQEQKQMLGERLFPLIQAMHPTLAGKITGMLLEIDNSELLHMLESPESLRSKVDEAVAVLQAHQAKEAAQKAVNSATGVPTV
The target of assay [27] is DNA dC->dU-editing enzyme APOBEC-3A (Homo sapiens, UniProt P31941). Briefly: Dose Response confirmation of small molecule APOBEC3A DNA Deaminase Inhibitors via a fluorescence-based single-stranded DNA deaminase assay. [Related pubchem assays (depositor defined):AID493011, AID493024]. In kind it is functional.
Chain of DNA dC->dU-editing enzyme APOBEC-3A (P31941 whole entry): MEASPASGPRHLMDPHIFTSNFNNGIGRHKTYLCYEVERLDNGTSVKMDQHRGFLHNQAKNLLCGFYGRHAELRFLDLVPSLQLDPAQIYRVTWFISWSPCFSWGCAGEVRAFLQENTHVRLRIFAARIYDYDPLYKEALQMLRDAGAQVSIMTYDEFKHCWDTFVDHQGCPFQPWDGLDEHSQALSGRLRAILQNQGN
The target of assay [28] is DNA dC->dU-editing enzyme APOBEC-3G (Homo sapiens, UniProt Q9HC16). In kind it is functional.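 Further: Dose-response counterscreen measuring inhibition of APOBEC3G DNA deaminase activity, run while confirming APOBEC3A inhibitors.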
Chain of DNA dC->dU-editing enzyme APOBEC-3G (Q9HC16 whole entry): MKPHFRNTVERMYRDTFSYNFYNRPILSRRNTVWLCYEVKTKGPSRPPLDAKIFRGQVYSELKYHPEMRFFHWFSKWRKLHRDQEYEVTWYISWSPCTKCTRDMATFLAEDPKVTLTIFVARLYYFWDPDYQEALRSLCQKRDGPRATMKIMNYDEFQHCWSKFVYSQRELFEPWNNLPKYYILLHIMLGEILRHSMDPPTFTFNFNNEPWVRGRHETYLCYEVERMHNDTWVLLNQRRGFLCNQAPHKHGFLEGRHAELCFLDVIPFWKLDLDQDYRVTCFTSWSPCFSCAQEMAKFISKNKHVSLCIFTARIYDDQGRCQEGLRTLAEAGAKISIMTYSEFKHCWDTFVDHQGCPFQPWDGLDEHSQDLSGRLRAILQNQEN
Assay [29] has as its target Heat shock protein HSP 90-alpha (Homo sapiens, UniProt P07900). In kind it is functional, organism-based.
Assay [30] in a line: microbe, parasite or virus in culture. In kind it is functional. The note with it: Mycobacterium tuberculosis.
Assay [31] addresses Sphingosine 1-phosphate receptor 4 (Homo sapiens, UniProt O95977). Briefly: Fluorescence dose response cell-based high throughput screening assay for antagonists of the Sphingosine 1-Phosphate Receptor 4 (S1P4). [Related pubchem assays: 1524 (Confirmation in triplicates.), 1510 (Primary screen.)]. In kind it is functional.
Assay [32] is described as follows: NIH-3T3 fibroblast cytotoxicity, dose response, cytotoxicity control, cell-based, fluorescence, Alamar Blue, secondary assay (AID 2327).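 Further: NIH-3T3 mouse fibroblasts cultured with fluconazole at 8 µg/mL.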 In kind it is functional.
Assay [33] has as its target T3, Heat shock factor protein 1 (Mus musculus, UniProt P38532).
T3 sequence (P38532 whole entry): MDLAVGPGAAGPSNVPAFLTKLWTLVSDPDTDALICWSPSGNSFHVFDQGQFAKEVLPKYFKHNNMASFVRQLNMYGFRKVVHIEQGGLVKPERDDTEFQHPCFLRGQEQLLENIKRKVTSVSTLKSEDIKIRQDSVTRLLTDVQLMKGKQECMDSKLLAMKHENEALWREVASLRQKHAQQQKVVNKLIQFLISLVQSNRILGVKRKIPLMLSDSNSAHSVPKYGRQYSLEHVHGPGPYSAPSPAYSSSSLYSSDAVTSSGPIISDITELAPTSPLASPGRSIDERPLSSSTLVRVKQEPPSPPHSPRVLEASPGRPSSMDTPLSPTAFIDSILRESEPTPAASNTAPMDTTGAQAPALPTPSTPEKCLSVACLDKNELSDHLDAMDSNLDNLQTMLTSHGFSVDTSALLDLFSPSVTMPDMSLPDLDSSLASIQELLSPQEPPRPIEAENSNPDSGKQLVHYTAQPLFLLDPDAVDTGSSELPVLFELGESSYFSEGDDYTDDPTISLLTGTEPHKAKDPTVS
Briefly: decrease of HSF1-responsive luciferase luminescence – cell-based, NIH3T3, dose retest, confirmation (AID 2382).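 Further: NIH3T3 fibroblasts with HSF1-driven luciferase reporter stressed by proteasome inhibitor MG132; luminescence from HSF1-driven luciferase expression after 8 hours of MG132 stress.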 In kind it is functional.

Assay [34] in a line: fluconazole-exposed Candida albicans growth modulators – fluorescence, retest, confirmation (AID 2467). In kind it is functional, cell-based.
For assay [35], the target named is Sphingosine 1-phosphate receptor 1 (Homo sapiens, UniProt P21453). In kind it is functional.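 Further: Tango beta-arrestin reporter U2OS cells stimulated with S1P near its EC80; inhibitor potency meaning antagonism of receptor activation by the natural agonist.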
Chain of Sphingosine 1-phosphate receptor 1 (P21453 whole entry): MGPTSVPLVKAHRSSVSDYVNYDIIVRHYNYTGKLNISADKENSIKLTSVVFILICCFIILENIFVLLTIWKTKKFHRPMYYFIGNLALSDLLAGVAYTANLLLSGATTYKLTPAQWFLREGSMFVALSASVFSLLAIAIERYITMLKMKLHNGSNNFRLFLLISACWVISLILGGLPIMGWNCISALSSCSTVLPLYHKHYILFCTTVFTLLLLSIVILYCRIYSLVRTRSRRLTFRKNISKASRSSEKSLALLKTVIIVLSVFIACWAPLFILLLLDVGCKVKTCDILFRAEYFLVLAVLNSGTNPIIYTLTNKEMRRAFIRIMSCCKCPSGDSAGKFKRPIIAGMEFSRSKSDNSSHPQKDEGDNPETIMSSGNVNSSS
Assay [36] has as its system INS1. Briefly: INS-1E survival protection against cytokine death – cell-based, luminescence, retest, dose response (AID 449756).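 Further: cell death triggered by IL-1 beta plus TNF-alpha plus IFN-gamma mixture; protective hits raise ATP signal compared with cytokine alone wells.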 In kind it is functional. The note with it: Rattus norvegicus.
The target of assay [37] is T4, Eukaryotic translation initiation factor 2-alpha kinase 3 (Homo sapiens, UniProt Q9NZJ5). Briefly: Dose response cell-based high-throughput screening assay to measure PERK inhibition. [Related pubchem assays: 1416 ]. In kind it is functional.
T4 sequence (Q9NZJ5 whole entry): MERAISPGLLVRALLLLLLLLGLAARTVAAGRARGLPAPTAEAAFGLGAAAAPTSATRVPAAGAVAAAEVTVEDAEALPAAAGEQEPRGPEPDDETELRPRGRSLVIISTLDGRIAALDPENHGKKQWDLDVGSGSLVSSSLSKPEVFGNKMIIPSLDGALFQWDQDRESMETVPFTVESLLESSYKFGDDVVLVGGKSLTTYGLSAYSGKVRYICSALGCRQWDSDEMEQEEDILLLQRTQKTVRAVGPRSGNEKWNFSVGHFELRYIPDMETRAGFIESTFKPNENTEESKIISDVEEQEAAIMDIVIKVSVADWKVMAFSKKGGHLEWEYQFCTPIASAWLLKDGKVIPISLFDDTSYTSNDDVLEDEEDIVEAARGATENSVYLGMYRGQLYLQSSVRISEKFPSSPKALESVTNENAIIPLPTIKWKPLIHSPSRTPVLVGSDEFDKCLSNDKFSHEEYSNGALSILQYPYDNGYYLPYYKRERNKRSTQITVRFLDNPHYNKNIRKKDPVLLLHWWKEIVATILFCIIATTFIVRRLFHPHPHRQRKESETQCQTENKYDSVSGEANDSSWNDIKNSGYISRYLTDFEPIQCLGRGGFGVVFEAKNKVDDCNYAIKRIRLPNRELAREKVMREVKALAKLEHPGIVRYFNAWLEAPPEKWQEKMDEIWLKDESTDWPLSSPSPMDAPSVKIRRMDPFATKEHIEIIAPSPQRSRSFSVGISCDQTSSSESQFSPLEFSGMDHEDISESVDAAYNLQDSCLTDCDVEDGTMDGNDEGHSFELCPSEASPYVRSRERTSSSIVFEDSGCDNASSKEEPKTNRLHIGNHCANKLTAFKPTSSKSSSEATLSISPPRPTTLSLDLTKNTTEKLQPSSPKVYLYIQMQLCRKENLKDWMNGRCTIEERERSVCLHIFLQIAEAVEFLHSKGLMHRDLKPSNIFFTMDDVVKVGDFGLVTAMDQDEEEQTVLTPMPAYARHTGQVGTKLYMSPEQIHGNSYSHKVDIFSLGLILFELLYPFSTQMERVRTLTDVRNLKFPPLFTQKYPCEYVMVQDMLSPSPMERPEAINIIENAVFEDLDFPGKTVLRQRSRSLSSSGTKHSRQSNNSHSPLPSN
Assay [38] deals with T4, Eukaryotic translation initiation factor 2-alpha kinase 3. Briefly: Counterscreen assay for PERK inhibitors: Dose response cell-based high throughput screening assay to measure inhibition of PERK at 6 hours. [Related pubchem assays: 1522, 1416 ]. In kind it is functional.

Structures are written as SMILES. The source made the active and inactive calls.

Broadly, the IC50 is the midpoint of a concentration-inhibition curve. As usually defined, the AC50 is the concentration at which the activity in the assay is half-maximal. By EC50 is commonly meant the concentration that produces a half-maximal response.

Chain of Paired box protein Pax-8 (Q06710 whole entry): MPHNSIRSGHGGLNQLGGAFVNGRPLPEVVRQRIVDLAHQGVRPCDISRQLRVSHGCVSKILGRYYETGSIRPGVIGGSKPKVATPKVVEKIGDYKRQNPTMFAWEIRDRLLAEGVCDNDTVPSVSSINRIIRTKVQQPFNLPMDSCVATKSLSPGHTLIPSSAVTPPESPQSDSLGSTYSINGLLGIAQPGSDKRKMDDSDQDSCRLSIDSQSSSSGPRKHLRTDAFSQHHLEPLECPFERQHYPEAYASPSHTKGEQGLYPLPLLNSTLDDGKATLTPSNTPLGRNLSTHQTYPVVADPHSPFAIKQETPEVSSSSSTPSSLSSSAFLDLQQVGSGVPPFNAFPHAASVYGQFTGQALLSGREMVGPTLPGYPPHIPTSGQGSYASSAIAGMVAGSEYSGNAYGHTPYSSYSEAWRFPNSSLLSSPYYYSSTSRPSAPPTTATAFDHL
Chain of Sphingosine 1-phosphate receptor 4 (O95977 whole entry): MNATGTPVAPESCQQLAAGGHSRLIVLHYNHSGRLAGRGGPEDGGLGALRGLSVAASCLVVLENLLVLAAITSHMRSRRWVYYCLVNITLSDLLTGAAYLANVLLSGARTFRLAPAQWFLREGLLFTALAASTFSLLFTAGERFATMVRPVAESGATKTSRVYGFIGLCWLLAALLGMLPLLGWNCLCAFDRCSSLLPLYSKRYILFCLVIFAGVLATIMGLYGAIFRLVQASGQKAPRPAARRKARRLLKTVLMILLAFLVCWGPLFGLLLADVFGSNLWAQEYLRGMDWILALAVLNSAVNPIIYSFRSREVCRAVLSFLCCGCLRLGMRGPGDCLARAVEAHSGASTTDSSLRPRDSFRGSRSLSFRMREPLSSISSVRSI

Consider `Cc1nn(C)c(C)c1NC(=O)c1ccc(S(=O)(=O)N(C)C)cc1`, for which the CC50 in assay [1] is on record as > 99 µM (not active).

`O=C(CCCn1c(=S)[nH]c2ccccc2c1=O)N1CCN(Cc2cccc3ccccc23)CC1`: the IC50 in [2] was 0.17 µM (not active).

For `Cc1ccccc1OCC(=O)Nc1cccc(C(=O)O)c1`, the AC50 in assay [3] is 0.669 µM (active); in assay [4] it was > 100 µM (inactive); in assay [5], 1.27 µM (active); in assay [6], 0.342 µM (active); in assay [8], 2.3 µM (active); in assay [10], > 100 µM (inactive). The AC50 was 7.82 µM (active) in assay [11]; 3.76 µM (active) in assay [13]; 1.05 µM (active) in assay [14]; 1.05 µM (active) in [16]; 3.61 µM (active) in [17]; 0.951 µM (active) in [19]. Besides, the EC50 in assay [7] is 0.725 µM (active); in assay [9], 0.393 µM (active); in assay [12], < 0.1 µM (active); in [18], 0.541 µM (active). For the same compound, the IC50 in assay [15] was > 39.8 µM (not active).

In the case of `COc1ccc(-c2csc(NC(=O)c3ccc(OCC(=O)N4CCOCC4)c(OC)c3)n2)cc1`, the AC50 in assay [3] is 18.4 µM (active); in [20], 43.1 µM (active); in assay [14], 22.4 µM (active); in assay [21] it was > 52 µM (inactive). In addition, the IC50 in assay [22] was 27.5 µM (active).

With `COc1cc(C(=O)Nc2nnc(-c3sccc3C)s2)cc(OC)c1OC`, the EC50 in assay [23] is 13.2 µM (active); in [24], > 89.2 µM (inactive).

For `CC(=O)OC(C[N+]1(C)CCCCCC1)c1ccccc1` (stereo not given), the IC50 in assay [25] is > 100 µM (inactive); in [26] it was 9.62 µM (active); in assay [27] it was 2.79 µM (active); in assay [28], 2.4 µM (active).

For `Cc1cc([N+](=O)[O-])c2ccccc2[n+]1[O-]`, the AC50 in assay [29] was < 0.195 µM (active); in [36] it was 2.24 µM (active). Moreover, the CC50 in assay [30] was < 0.16 µM (active). Also, the IC50 in assay [31] was 0.22 µM (active); in assay [35] it was 3.28 µM (active). In addition, the EC50 in [32] was 4.65 µM (inconclusive); in assay [33], 6.35 µM (active); in assay [34] it was 0.097 µM (active).

Regarding `Oc1cnnc(N/N=C/c2cccs2)n1`, the EC50 in assay [37] and in assay [38] was > 55.7 µM (not active) each time.

For the origin of these results see ChEMBL document CHEMBL1201862, “PubChem BioAssay data set” (2004).
